Data reported in patent US9353150B2, “Substituted pyrazino[1′,2′:1 ,5]pyrrolo[2,3-b]-indole-1,4-diones for cancer treatment” (Massachusetts Institute of Technology, priority 2012, dated 2016).
Like-named read-outs stand apart in the source and are kept apart here.

What was measured:
[1] = test system: U-937 (hystiocytic lymphoma); test: 72-hour IC50 determination for non-adherent cells using MTS; type: cell-based, human; conditions: 72-hour exposure, MTS, error is standard deviation of the mean, n ≧ 3
Experimental: (§1) Certain synthesized compounds were screened for their ability to induce death in two human cancer cell lines: U-937 (leukemic monocyte lymphoma) and HeLa (cervical cancer).
(§2) Cells were grown in media supplemented with fetal bovine serum (FBS) and antibiotics ([…]). Specifically, experiments were performed using the following cell lines and media compositions: U-937, HeLa, H460, and 786-O (RPMI-1640+10% FBS), and MCF7 (EMEM+10% FBS). Cells were incubated at 37° C. in a 5% CO2, 95% humidity atmosphere.
(§3) In a 96-well plate, compounds were pre-added as DMSO stocks in triplicate to achieve a final concentration of 1%. DMSO and cell-free wells served as the live and dead control, respectively. U-937 (5,000 cells/well) cells were distributed in 100 μL media to the compound-containing plate. After 72 hours, cell viability was assessed by adding 20 μL of a PMS/MTS solution (Cory, A. H.; Owen, T. C.; Barltrop, J. A.; Cory, J. G. Cancer Commun. 1991, 3, 207) to each well, allowing the dye to develop at 37° C. until the live control had processed MTS, and reading the absorbance at λ=490 nm. IC50 values were determined from three or more independent experiments using TableCurve (San Jose, Calif.).

[2] = test system: HeLa (cervical carcinoma); test: 72-hour IC50 determination for adherent cells using sulforhodamine B (SRB); type: cell-based, human; conditions: 72-hour exposure, SRB, error is standard deviation of the mean, n ≧ 3
Experimental: as §1, §2
(§4) Adherent cells (HeLa, H460, 786-O, and MCF7) were added into 96-well plates (5,000 cells/well for HeLa cell line; 2,000 cells/well for H460, 786-O, and MCF7 cell lines) in 100 μL media and were allowed to adhere for 2-3 hours. Compounds were solubilized in DMSO as 100× stocks, added directly to the cells (100 μL final volume), and tested over a range of concentrations in triplicate (1% DMSO final) on a half-log scale. Concentrations tested ranged from […] to 10 μM, depending on the potency of the compound. DMSO and cell-free wells served as the live and dead control, respectively. After 72 hours of continuous exposure, the plates were evaluated using the SRB colorimetric assay as described previously (Vichai, V.; Kirtikara, K. Nature Prot. 2006, 1, 1112). Briefly, media was removed from the plate, and cells were fixed by the addition of 100 μL cold 10% trichloroacetic acid in water. After incubating at 4° C. for an hour, the plates were washed in water and allowed to dry. Sulforhodamine B was added as a 0.057% solution in 1% acetic acid (100 μL), and the plates were incubated at room temperature for 30 minutes, washed in 1% acetic acid, and allowed to dry. The dye was solubilized by adding 10 mM Tris base solution (pH 10.5, 200 μL) and incubating at room temperature for 30 minutes. Plates were read at λ=510 nm. IC50 values were determined from three or more independent experiments using TableCurve (San Jose, Calif.).

[3] = test system: 786-O (renal carcinoma); test: as above; type: cell-based, human; conditions: error is standard deviation of the mean, n ≧ 3, read-out: 786-O, 72-hour IC50 (Table E1-2)
Experimental: (§5) Certain provided compounds were tested in culture against a panel of three supplementary human cancer cell lines representing three additional tumor histologies (H460, lung carcinoma; 786-O, renal carcinoma; MCF-7, breast carcinoma). As shown in Table E1-2, the ETPs retain their potency across the cell lines. In some embodiments, a provided compound is active in all cell lines. In some embodiments, a provide compound can be used to selectively target certain cells and/or cancers. […] Without the intention to be limited, Applicant notes that certain cell lines could be more sensitive to provided compounds; for example, U-937 and HeLa are slightly more sensitive to the ETPs than the other three cell lines.
as §2, §4

[4] = test system: H460 (lung carcinoma); test: as above; type: cell-based, human; conditions: error is standard deviation of the mean, n ≧ 3, read-out: H460, 72-hour IC50 (Table E1-2)
Experimental: as §5, §2, §4

[5] = test system: MCF-7 (breast carcinoma); test: as above; type: cell-based, human; conditions: error is standard deviation of the mean, n ≧ 3, read-out: MCF-7, 72-hour IC50 (Table E1-2)
Experimental: as §5, §2, §4

[6] = test system: human cancer cell lines; test: Anticancer activity in human cancer cell lines, not tied to one cell line; type: cell-based; conditions: human cancer cell lines, 72-hour exposure
Experimental: as §1, §5, §4, §3

[7] = Stability observed on isolation (concentration / solution); conditions: observed during isolation and characterization
[8] = Homo sapiens, U-937, read-out: U-937, 72-hour IC50 (Table E1-1)
[9] = Homo sapiens, U-937, read-out: U-937, 72-hour IC50 (Table E1-2)
[10] = Homo sapiens, HeLa, read-out: HeLa, 72-hour IC50 (Table E1-1)
[11] = Homo sapiens, HeLa, read-out: HeLa, 72-hour IC50 (Table E1-2)
[12] = Homo sapiens, 786-0, 72-hour exposure
[13] = Homo sapiens, NCI-H460, 72-hour exposure
[14] = Homo sapiens, MCF7, 72-hour exposure
[15] = read-out: U-937, 72-hour IC50 (Table E1-1)
[16] = read-out: U-937, 72-hour IC50 (Table E1-2)
[17] = read-out: HeLa, 72-hour IC50 (Table E1-1)
[18] = read-out: HeLa, 72-hour IC50 (Table E1-2)

Row | SMILES | IC50 [1, 8] | IC50 [1, 9] | IC50 [2, 10] | IC50 [2, 11] | IC50 [3, 12] | IC50 [4, 13] | IC50 [5, 14] | anticancer activity, in words [6] | IC50 [1, 15] | IC50 [1, 16] | IC50 [2, 17] | IC50 [2, 18] | IC50 ([3]; 72-hour exposure) | IC50 ([4]; 72-hour exposure) | IC50 ([5]; 72-hour exposure) | stability upon concentration or in solution [7]
1 | CC(=O)S[C@H]1C(=O)N2[C@H]3N(S(=O)(=O)c4ccccc4)c4ccccc4[C@@]3(c3c[nH]c4ccccc34)C[C@]2(SC(C)=O)C(=O)N1C [Compound 44, C3-(Indol-3′-yl)bisthloaeetate] | 4.1 ± 0.5 nM | 4.1 ± 0.5 nM | 17.3 ± 4.5 nM | 17.3 ± 4.5 nM | 151 ± 7 nM | 149 ± 59 nM | 103 ± 37 nM | competent anticancer agents |  |  |  |  |  |  |  | 
2 | CN1C(=O)[C@]23C[C@]4(F)c5ccccc5N(S(=O)(=O)c5ccccc5)[C@@H]4N2C(=O)[C@H]1SS3 [Compound 35, C3-Fluoro epidithiodiketopiperazines] |  |  |  |  |  |  |  | intermediately good activity | 21.3 ± 8.7 nM | 21.3 ± 8.7 nM | 56 ± 21 nM | 56 ± 21 nM | 64 ± 20 nM | 123 ± 50 nM | 93 ± 34 nM | 
3 | CN1C(=O)[C@@]23C[C@]4([C@]56C[C@@]78SS[C@@](CO)(C(=O)N7[C@H]5Nc5ccccc56)N(C)C8=O)c5ccccc5N[C@@H]4N2C(=O)[C@]1(CO)SS3 [Compound 4, (+)-chaetocin A] |  |  |  |  |  |  |  | active across the board | 0.81 ± 0.15 nM | 0.81 ± 0.15 nM | 6.9 ± 2 nM | 6.9 ± 2 nM | 26.5 ± 7.7 nM | 53 ± 23 nM | 50 ± 16 nM | 
4 | CSS[C@H]1C(=O)N2[C@H]3N(S(=O)(=O)c4ccccc4)c4ccccc4[C@@]3(c3cn(SC)c4ccccc34)C[C@]2(SSC)C(=O)N1C [Compound 45, C3-(Indol-3′-yl) N-(thiomethyl)bis(methyldisulfane)] | 14.5 ± 9.1 nM | 14.5 ± 9.1 nM | 13.7 ± 2.3 nM | 13.7 ± 2.3 nM | 376 ± 120 nM | 252 ± 37 nM | 373 ± 75 nM | competent anticancer agents |  |  |  |  |  |  |  | 
5 | CN1C(=O)[C@@]23C[C@]4(c5c[nH]c6ccccc56)c5ccccc5N(S(=O)(=O)c5ccccc5)[C@@H]4N2C(=O)[C@@H]1SSSS3 [Compound 28, C3-(Indol-3′-yl) epitetrathiodiketopiperazine] | 8.3 ± 3.3 nM | 8.3 ± 3.3 nM | 137 ± 86 nM | 137 ± 86 nM | 344 ± 20 nM | 277 ± 43 nM | 309 ± 31 nM |  |  |  |  |  |  |  |  | instability in solution
6 | CN1C(=O)[C@@]23C[C@]4(F)c5ccccc5N(S(=O)(=O)c5ccccc5)[C@@H]4N2C(=O)[C@@H]1SS3 [Compound 31, C3-Fluoro epidithiodiketopiperazines] |  |  |  |  |  |  |  | intermediately good activity | 20.7 ± 6.4 nM | 20.7 ± 6.4 nM | 1530 ± 440 nM | 1530 ± 440 nM | 368 ± 78 nM | > 1000 nM | 218 ± 97 nM | 
